This assay has as its system BDF1 mice, L1210 leukemia sc, survival T/C. The assay can be described thus: NCI In Vivo Anticancer Drug Screen. Data for tumor model L1210 Leukemia (subcutaneous) in B6D2F1 (BDF1) mice. The conditions noted are these: endpoint: median survival time, higher = longer survival. The essentials: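 Tumors were transplanted into mice, the animals were treated with compound, survival or tumor size was then measured, and treated values were divided by vehicle-control values.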

Setting [1] is: dose: 1.08 mg/kg/injection, schedule: Q01DX Z (sc), vehicle: saline.
The mark [2] stands for this setting: dose: 23.0 mg/kg/injection, schedule: Q01DX001 (sc), vehicle: saline.
[3] abbreviates: dose: 23.0 mg/kg/injection, schedule: Q## X Z (sc), vehicle: saline.
Where [4] appears, read: dose: 39.0 mg/kg/injection, schedule: Q01DX001 (sc), vehicle: saline.
Setting [5] is: dose: 39.0 mg/kg/injection, schedule: Q## X Z (sc), vehicle: saline.
The mark [6] stands for this setting: dose: 65.0 mg/kg/injection, schedule: Q01DX001 (sc), vehicle: saline.
Where [7] appears, read: dose: 65.0 mg/kg/injection, schedule: Q## X Z (sc), vehicle: saline.
The mark [8] stands for this setting: dose: 108.0 mg/kg/injection, schedule: Q01DX001 (sc), vehicle: saline.
Where [9] appears, read: dose: 108.0 mg/kg/injection, schedule: Q## X Z (sc), vehicle: saline.

From PubChem BioAssay AID250 (DTP/NCI, 2004) come the findings set out here.

Where “and” joins values, the source holds several entries; their conditions need not be identical. Identical values can stand only once. Inconclusive results and toxic doses are left out.

Consider `Cc1c(CNc2ccc(C(=O)NC(CC(=O)O)C(=O)O)cc2)ccc2nc(N)nc(N)c12` (centres undefined), for which the T/C reads like this: (dose: 0.05 mg/kg/injection, schedule: Q01DX017 (sc), vehicle: sodium bicarbonate) 116 % of control; (dose: 1.8 mg/kg/injection, schedule: Q04DX005 (sc), vehicle: sodium bicarbonate) 229 % of control; (dose: 3.0 mg/kg/injection, schedule: Q04DX005 (sc), vehicle: sodium bicarbonate) 233 % of control; (dose: 5.0 mg/kg/injection, schedule: Q04DX005 (sc), vehicle: sodium bicarbonate) 170 % of control; (dose: 8.4 mg/kg/injection, schedule: Q04DX005 (sc), vehicle: sodium bicarbonate) 150 % of control; (dose: 14.0 mg/kg/injection, schedule: Q01DX017 (sc), vehicle: sodium bicarbonate) 95 % of control. In addition, the T/C is, setting by setting: (dose: 14.0 mg/kg/injection, schedule: Q04DX005 (sc), vehicle: sodium bicarbonate) 116 % of control; (dose: 23.0 mg/kg/injection, schedule: Q01DX017 (sc), vehicle: sodium bicarbonate) 87 % of control.

Consider `C=CC(CO)N1CC1` (centres undefined), for which the T/C was 100 % of control under setting [1]; 100 % of control (dose: 1.8 mg/kg/injection, schedule: Q01DX Z (sc), vehicle: saline); 100 % of control (dose: 1.8 mg/kg/injection, schedule: Q02DX Z (sc), vehicle: saline); 100 % of control (dose: 3.0 mg/kg/injection, schedule: Q01DX Z (sc), vehicle: saline); 105 % of control (dose: 3.0 mg/kg/injection, schedule: Q02DX Z (sc), vehicle: saline); 90 % of control and 100 % of control (dose: 5.0 mg/kg/injection, schedule: Q01DX Z (sc), vehicle: saline). Also, the T/C reads like this: (dose: 5.0 mg/kg/injection, schedule: Q02DX Z (sc), vehicle: saline) 100 % of control; (dose: 5.0 mg/kg/injection, schedule: Q## X Z (sc), vehicle: saline) 100 % of control; (dose: 7.8 mg/kg/injection, schedule: Q01DX Z (sc), vehicle: saline) 100 % of control; (dose: 8.4 mg/kg/injection, schedule: Q01DX001 (sc), vehicle: saline) 100 % of control; (dose: 8.4 mg/kg/injection, schedule: Q02DX Z (sc), vehicle: saline) 100 % of control; (dose: 8.4 mg/kg/injection, schedule: Q## X Z (sc), vehicle: saline) 100 % of control. Further, the T/C was 100 % of control (dose: 14.0 mg/kg/injection, schedule: Q01DX001 (sc), vehicle: saline); 100 % of control (dose: 14.0 mg/kg/injection, schedule: Q01DX Z (sc), vehicle: saline); 100 % of control (dose: 14.0 mg/kg/injection, schedule: Q02DX Z (sc), vehicle: saline); 100 % of control (dose: 14.0 mg/kg/injection, schedule: Q## X Z (sc), vehicle: saline); 100 % of control under setting [2]; 90 % of control and 110 % of control (dose: 23.0 mg/kg/injection, schedule: Q01DX Z (sc), vehicle: saline). The T/C by setting is: (dose: 23.0 mg/kg/injection, schedule: Q02DX Z (sc), vehicle: saline) 100 % of control; under setting [3], 100 % of control; (dose: 36.0 mg/kg/injection, schedule: Q01DX Z (sc), vehicle: saline) 105 % of control; (dose: 37.0 mg/kg/injection, schedule: Q02DX Z (sc), vehicle: saline) 100 % of control; under setting [4], 110 % of control; (dose: 39.0 mg/kg/injection, schedule: Q01DX Z (sc), vehicle: saline) 95 % of control and 100 % of control. Also, the T/C runs as follows: under setting [5], 100 % of control; under setting [6], 120 % of control; (dose: 65.0 mg/kg/injection, schedule: Q02DX Z (sc), vehicle: saline) 100 % of control; under setting [7], 120 % of control; under setting [8], 115 % of control; under setting [9], 115 % of control.

As for `CCCCCCOP(=O)(N1CC1)N1CC1`, the T/C is 100 % of control and 110 % of control (dose: 0.65 mg/kg/injection, schedule: Q01DX Z (sc), vehicle: saline); 104 % of control and 110 % of control (2×) under setting [1]; 150 % of control under setting [2]; 170 % of control under setting [3]; 150 % of control under setting [4]; 220 % of control under setting [5]. For the same compound, the T/C was 170 % of control under setting [6]; 160 % of control under setting [7]; 160 % of control under setting [8]; 150 % of control under setting [9]; 150 % of control (dose: 180.0 mg/kg/injection, schedule: Q01DX001 (sc), vehicle: saline).
